Data from patent US10335417B2, “Thiazideamide derivative and use thereof” (Institute of Pharmacology and Toxicology Academy of …, priority 2015, dated 2019).

What was measured:
[1] = system: chick embryo dorsal root ganglion; experiment: in vitro serum-free culture model of chick embryonic dorsal root ganglion: neurite growth score with NGF; type: cell-based; settings: 48 h, score 0-3, average of five ganglions, control 0.33
Protocol: The neurotrophic activity of the compounds according to the invention can be embodied in multiple in vitro biological models, such as in vitro serum-free culture model of chick embryonic dorsal root ganglion.
Experimental method: in a sterile environment, chick embryo, which had been incubated for 8 d, had the spinal and bilateral ganglion exposed under anatomical lens. Dorsal root ganglions were picked one by one using sharp forceps, and seeded in culture bottles spread with rat tail collagen, at a density of 5-6 ganglions per bottle, and two bottles for each dose. After attachment culture in a 37° C., 5% CO2 incubator for 1 h, serum-free medium DMEM containing nerve growth factor (NGF) (0.15 ng/mL), and the compound according to the invention were added. In the control group, only the medium and the same dose of NGF were added. After culture in the incubator for 48 h, the growth of neurite around dorsal root ganglion was observed under inverted phase contrast microscope, which was scored depending on the length and density of neurite.
Evaluation criteria: 0: no neurite; 1: rare long neurite; 2: relatively long or dense neurite; 3: long and dense neurite.

in vitro = settings: dog, MDCK-MDR1
From the text: MDCK-MDR1 cells were monolayer cells which highly express P-gp transporter after transfection of MDCK (Madin-Darby canine kidney epithelial cell) with MDR1 gene. Due to its density and high expression of efflux protein, the monolayer has similarity compared to blood-brain barrier (BBB) structure and now can be used as one of models for evaluating the ability of passing through BBB. In the invention, MDCK-MDR1 cells were used to study the membrane permeability of the compounds according to the invention, and to primarily evaluate its ability of passing through BBB.
The frozen MDCK-MDR1 cells were quickly thawed in a 37° C. water bath. To the resuscitated cells, DMEM medium containing 10% FBS was added, and the cells were cultured in an incubator at 37° C., 5% CO2, and a relative humidity of 90%. The medium was changed every other day. After fusion of the cells growing for 1-2 days, the cells were digested with 0.25% trypsin-EDTA (0.2%) mixed digestion solution at 37° C., and were sub-cultured at a certain ratio. The cells for use in experiment were those passaged for 40-60 generations.
When the cell fusion degree reached 80%, the cells were digested and then suspended in complete medium, and seeded to Millicell plate at 1×10^6 cells·mL^−1. The medium was changed every other day, and 1 week later, the medium was changed every day. After culturing for 5 days, the resistance value reached a constant value (>200 Ω·cm^2), and the cells could be used in the transport experiment.
After washing with 37° C. HBSS twice, the cells were incubated in a 37° C. culture incubator, wherein Rho-123 was added to the upper wells, and HBSS was added to the bottom wells. The incubation was carried out in a constant temperature shaker, and the solutions from the bottom wells were collected at each time point (0 min, 30 min, 90 min, 120 min), and stored at −20° C. for further use. The amount of Rho-123 permeated to the bottom well was determined by fluorospectrophotometer, wherein the emission wavelength was […], and the excitation wavelength was 530 nm.
The permeability from cavity-surface to basal surface: drug-containing HBSS 0.35 mL was add to Apical (AP), and blank HBSS 1.2 mL was added to Basolateral (BL). The Millicell was placed at 37° C. in a shaker under shaking at 50 r·min^−1, 50 μL sample was collected from the bottom well at 0, 30, 90, 120 min, respectively, and the same volume of blank HBSS was supplemented. 3 wells were set for each concentration, and to the sample, an internal standard solution (50 μL) and ethyl acetate (350 μL) were added precisely. The mixture was mixed homogeneously under shaking, and centrifuged at 12000 rmp for 5 min. The supernatant (300 μL) was volatilized to dryness, and re-dissolved in 50 μL acetonitrile. The 10 μL resultant solution was used for determination.
The permeability from basal surface to cavity surface: the drug is added to Basolateral (BL), and blank HBSS was added to Apical (AP), and the other steps were the same as those of the experiment for determining the permeability from cavity-surface to basal surface.
The apparent permeability coefficient (Papp) of a drug reflects the ability of the drug to pass through cell monolayer and the drug absorption rate and extent. It can be calculated in accordance with the following equation: […]
wherein, Q represents the amount of drug permeated in the t period, A represents cell surface area, and represents the area (0.6 cm^2) of supporting film in this model, and C0 represents an initial concentration. The unit of Papp is expressed as cm·s^−1.
By measurement using LC/MS, the concentration of each sample was quantitated using its standard curve (50 nM-10000 nM).

[2] = system: BCAO-LBP mice (incomplete global cerebral ischemia); experiment: mouse BCAO-LBP model of incomplete global cerebral ischemia: cerebral MDA content and neurological function score; type: in vivo, Kunmin mice; settings: for Neurologic deficit score / MDA content: 30 mg/kg i.g. once/d for 3 d, x ± SEM; for Neurologic deficit score: behaviour within 6 h after ligation, model group 3.92, sham 0.00; for MDA content: whole cerebrum, model group 40.94, sham 33.15
From the text: In the Example, Kunmin mice were used as experimental subjects, intragastric (i.g.) administration was used, mouse BCAO-LBP (bilateral carotid artery occlusion with low blood pressure) model was used, and by determining neurological function score and the cerebral malondialdehyde (MDA) content in mice, the compounds were investigated for their protective effects on incomplete global cerebral ischemia in mice when administered prophylactically.
2.1.2 Preparation of a drug for intragastric administration: the compound was prepared to a 1.5 mg/ml solution using 0.7% CMC-Na solution.
28 mice, which had adapted to the laboratory environment for 1 week, were evenly grouped depending on body weight. The mice were intragastrically administered with 0.7% CMC-Na or one of the compounds, once/d, for 3 d. The groups were as followed:
Administration group: 12 mice, intragastrically administered at a dose of 0.2 ml/10 g, i.e., the dose of the compound was 30 mg/kg.
2.3.1 Mouse bilateral carotid artery ligation: 1 h after the last administration, the mice were subjected to orbital bloodletting to reduce blood pressure (which was about 30% of the total blood volume of the mice), and then fixed in supine position on the operating table, and cut in the middle of neck. Carotid artery was subjected to blunt dissection, and 2 lines were used in ligation for each side. The time counting started after the ligation with the third line, the carotid artery was cut off between the two lines, and the incision was sewn up. In the Sham-operated group, the carotid artery was only separated without ligation. After the operation, the mice were unfixed quickly, and the mice were observed and recorded for the behaviors within 6 h (scoring depending on the following table using blind method) and the death time. The brains were taken quickly after the mice died, the cerebellums were removed, and the MDA content in the whole cerebrum was determined by thiobarbituric acid (TBA).
The cerebra of mice were taken and weighed, and were prepared into 15% brain homogenate using N.S. 1.2 ml brain homogenate was placed in a 37° C. water bath for 1 h (shaking once every 10 min) and then taken out. 20% trichloroacetic acid 0.6 ml was added, and the mixture was mixed well, and was on standing for 10 min. After centrifugation at 2000 rpm for 10 min, to 1.2 ml supernatant, 0.67% TBA 0.6 ml was added. The mixture was placed in a boiling water bath for 10 min, and was taken out for cooling, and the OD value at a wavelength of 532 nm was determined.
The experimental data was expressed as x±SEM; SPSS 13.0 statistic software was used. Homogeneity or heterogeneity of variance was determined by one-factor analysis of variance. In the case of homogeneity of variance, LSD test was used; in the case of heterogeneity of variance, Dunnett's T3 test was used. Significant difference among different groups was compared, and P<0.05 indicated statistical significance.

[3] = compound 100 pM + NGF 0.15 ng/mL

## Cc1ccc(S(=O)(=O)N2CCSC[C@H]2C(=O)N[C@H](Cc2ccccc2)C(=O)OC(C)C)cc1 [Compound 24, (R)-isopropyl-3-phenyl-2((R)-(4-methylphenyl)sulfonyltetrahydro-1,4-thiazin-3-aminoformyl)propionate]
[1]; compound 1 pM + NGF 0.15 ng/mL
  Average score (growth of neurites of chick embryo dorsal root ganglion): 1.89
[1]; [3]
  Average score (growth of neurites of chick embryo dorsal root ganglion): 2.80
In vitro
  Papp at 120 min: 37.8 ×10⁻⁶ cm/s

## Cc1ccc(S(=O)(=O)N2CCSC[C@H]2C(=O)N[C@@H](Cc2ccccc2)C(=O)OC(C)(C)C)cc1 [Compound 19, (S)-tert-butyl-3-phenyl-2((R)-(4-methylphenyl)sulfonyltetrahydro-1,4-thiazin-3-aminoformyl)propionate]
[1]; compound 1 pM + NGF 0.15 ng/mL
  Average score (growth of neurites of chick embryo dorsal root ganglion): 1.55
[1]; [3]
  Average score (growth of neurites of chick embryo dorsal root ganglion): 2.49
In vitro
  Papp at 120 min: 42.3 ×10⁻⁶ cm/s

## COC(=O)[C@H](NC(=O)[C@@H]1CSCCN1S(=O)(=O)c1ccc(C)cc1)C(C)C [Compound 14, (R)-methyl-3-methyl-2((R)-(4-methylphenyl)sulfonyltetrahydro-1,4-thiazin-3-aminoformyl)butyrate]
[1]; compound 1 pM + NGF 0.15 ng/mL
  Average score (growth of neurites of chick embryo dorsal root ganglion): 1.44
[1]; [3]
  Average score (growth of neurites of chick embryo dorsal root ganglion): 2.35
In vitro
  Papp at 120 min: 33.2 ×10⁻⁶ cm/s

## CCOC(=O)[C@@H](NC(=O)[C@@H]1CSCCN1S(=O)(=O)c1ccc(C)cc1)C(C)C [Compound 13, (S)-ethyl-3-methyl-2((R)-(4-methylphenyl)sulfonyltetrahydro-1,4-thiazin-3-aminoformyl)butyrate]
[1]; compound 1 pM + NGF 0.15 ng/mL
  Average score (growth of neurites of chick embryo dorsal root ganglion): 1.96
[1]; [3]
  Average score (growth of neurites of chick embryo dorsal root ganglion): 2.88
[2]
  Neurologic deficit score: 2.47 ± 0.40
  MDA content: 33.90 ± 1.45 nmol/g
[2]; 30 mg/kg i.g., BCAO-LBP mice
  neurologic deficit score decreased compared to the group administered with Compound 5: ~32%
In vitro
  Papp at 120 min: 18.9 ×10⁻⁶ cm/s

## Cc1ccc(S(=O)(=O)N2CCSC[C@H]2C(=O)N[C@H](C(=O)OCc2ccccc2)C(C)C)cc1 [Compound 11, (S)-benzyl-3-methyl-2((R)-(4-methylphenyl)sulfonyltetrahydro-1,4-thiazin-3-aminoformyl)butyrate]
[1]; compound 1 pM + NGF 0.15 ng/mL
  Average score (growth of neurites of chick embryo dorsal root ganglion): 1.86
[1]; [3]
  Average score (growth of neurites of chick embryo dorsal root ganglion): 2.65
[2]
  Neurologic deficit score: 3.66 ± 0.31
  MDA content: 32.57 ± 0.75 nmol/g
In vitro
  Papp at 120 min: 15.6 ×10⁻⁶ cm/s

## CCOC(=O)[C@@H](Cc1ccccc1)NC(=O)[C@@H]1CSCCN1S(=O)(=O)c1ccc(C)cc1 [Compound 21, (R)-ethyl-3-phenyl-2((R)-(4-methylphenyl)sulfonyltetrahydro-1,4-thiazin-3-aminoformyl)propionate]
[1]; compound 1 pM + NGF 0.15 ng/mL
  Average score (growth of neurites of chick embryo dorsal root ganglion): 1.79
[1]; [3]
  Average score (growth of neurites of chick embryo dorsal root ganglion): 2.74
In vitro
  Papp at 120 min: 25.8 ×10⁻⁶ cm/s

## Cc1ccc(S(=O)(=O)N2CCSC[C@H]2C(=O)N[C@H](C(=O)OC(C)(C)C)C(C)C)cc1 [Compound 12, (S)-tert-butyl-3-methyl-2((R)-(4-methylphenyl)sulfonyltetrahydro-1,4-thiazin-3-aminoformyl)butyrate]
[1]; compound 1 pM + NGF 0.15 ng/mL
  Average score (growth of neurites of chick embryo dorsal root ganglion): 1.77
[1]; [3]
  Average score (growth of neurites of chick embryo dorsal root ganglion): 2.48
In vitro
  Papp at 120 min: 22.5 ×10⁻⁶ cm/s

## Cc1ccc(S(=O)(=O)N2CCSC[C@H]2C(=O)N[C@@H](CCc2ccccc2)C(=O)OC(C)C)cc1 [Compound 25, (S)-isopropyl-4-phenyl-2((R)-(4-methylphenyl)sulfonyltetrahydro-1,4-thiazin-3-aminoformyl)butyrate]
[1]; compound 1 pM + NGF 0.15 ng/mL
  Average score (growth of neurites of chick embryo dorsal root ganglion): 1.76
[1]; [3]
  Average score (growth of neurites of chick embryo dorsal root ganglion): 2.68
In vitro
  Papp at 120 min: 27.3 ×10⁻⁶ cm/s

## CCOC(=O)[C@H](Cc1ccccc1)NC(=O)[C@@H]1CSCCN1S(=O)(=O)c1ccc(C)cc1 [Compound 17, (S)-ethyl-3-phenyl-2((R)-(4-methylphenyl)sulfonyltetrahydro-1,4-thiazin-3-aminoformyl)propionate]
[1]; compound 1 pM + NGF 0.15 ng/mL
  Average score (growth of neurites of chick embryo dorsal root ganglion): 1.75
[1]; [3]
  Average score (growth of neurites of chick embryo dorsal root ganglion): 2.71
In vitro
  Papp at 120 min: 22.7 ×10⁻⁶ cm/s

## COC(=O)[C@H](Cc1ccccc1)NC(=O)[C@@H]1CSCCN1S(=O)(=O)c1ccc(C)cc1 [Compound 16, (S)-methyl-3-phenyl-2((R)-(4-methylphenyl)sulfonyltetrahydro-1,4-thiazin-3-aminoformyl)propionate]
[1]; compound 1 pM + NGF 0.15 ng/mL
  Average score (growth of neurites of chick embryo dorsal root ganglion): 1.57
[1]; [3]
  Average score (growth of neurites of chick embryo dorsal root ganglion): 2.69
In vitro
  Papp at 120 min: 39.7 ×10⁻⁶ cm/s

## COC(=O)[C@@H](NC(=O)[C@@H]1CSCCN1S(=O)(=O)c1ccc(C)cc1)C(C)C [Compound 10, (S)-methyl-3-methyl-2((R)-(4-methylphenyl)sulfonyltetrahydro-1,4-thiazin-3-aminoformyl)butyrate]
[1]; compound 1 pM + NGF 0.15 ng/mL
  Average score (growth of neurites of chick embryo dorsal root ganglion): 1.54
[1]; [3]
  Average score (growth of neurites of chick embryo dorsal root ganglion): 2.38
In vitro
  Papp at 120 min: 34.1 ×10⁻⁶ cm/s

## Cc1ccc(S(=O)(=O)N2CCSC[C@H]2C(=O)N[C@H](CCc2ccccc2)C(=O)OC(C)C)cc1 [Compound 26, (R)-isopropyl-4-phenyl-2((R)-(4-methylphenyl)sulfonyltetrahydro-1,4-thiazin-3-aminoformyl)butyrate]
[1]; compound 1 pM + NGF 0.15 ng/mL
  Average score (growth of neurites of chick embryo dorsal root ganglion): 1.80
[1]; [3]
  Average score (growth of neurites of chick embryo dorsal root ganglion): 2.78
In vitro
  Papp at 120 min: 35.9 ×10⁻⁶ cm/s
